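Five compound concentrations were applied to cells in 96-well plates for 48 hours; endpoints were derived by simple linear interpolation of the resulting dose-response curve. GI50 = concentration required for 50% inhibition of growth.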 The source made the active and inactive calls. Rule as the data show it: active = GI50 up to about 1.1 µM and inactive = higher. Where only a bound is given, the exact number is not on record here.

The text below walks through data of ChEMBL document CHEMBL1201862, “PubChem BioAssay data set” (2004).

Among the test systems are CAKI-1; HCT-116; HL-60; HT-29; LXFL 529; MOLT-4; Malme-3M; NCI-H226; OVCAR-3; OVCAR-5; OVCAR-8; RPMI-8226; SF-295; SK-OV-3; SW-620; U-251; UO-31; HCT-15; MDA-MB-231; NCI/ADR-RES.
What all share (experiment): inhibition of tumour cell growth, NCI panel, 48 h

On to `Nc1nc(-c2ccccc2)cc(-c2ccccc2O)n1`, for which the GI50 in the experiment with CAKI-1 is 34.1 µM (inactive); in the experiment with HCT-116, 20.7 µM (inactive); in the experiment on HL-60, 16.5 µM (inactive); in the experiment with HT-29 it was 33.4 µM (inactive); with LXFL 529 it was 30.8 µM (inactive); in the experiment on MOLT-4 it was 25.1 µM (inactive). Also, the GI50 with Malme-3M is > 100 µM (inactive); with NCI-H226, 19 µM (inactive); with OVCAR-3, 33.5 µM (inactive); with OVCAR-5, 32.8 µM (inactive); in the experiment with OVCAR-8, 39.7 µM (inactive); with RPMI-8226, 22.6 µM (inactive). Further, the GI50 was 71.6 µM (inactive) in the experiment with SF-295; 85.9 µM (inactive) in the experiment on SK-OV-3; 41.1 µM (inactive) in the experiment on SW-620; 45.2 µM (inactive) in the experiment with U-251; 8.15 µM (inactive) in the experiment with UO-31.
On to `CCCC/C=C1/CCC(CN(C)C)C1=O` (stereo not given), for which the GI50 with CAKI-1 is 0.745 µM (active); in the experiment on HCT-116, 1.84 µM (inactive); in the experiment with HCT-15 it was 0.401 µM; in the experiment on HL-60 it was 0.885 µM (active); in the experiment on LXFL 529, 0.625 µM (active); in the experiment on MDA-MB-231, 2.82 µM (inactive). Also, the GI50 in the experiment with Malme-3M is 1.98 µM (inactive); with NCI-H226, 11.1 µM (inactive); in the experiment with NCI/ADR-RES it was 2.64 µM (inactive); in the experiment on OVCAR-3, 1.94 µM (inactive); with OVCAR-5, 6.01 µM (inactive); in the experiment on OVCAR-8, 1.83 µM (inactive). The GI50 is 0.0968 µM (active) in the experiment with RPMI-8226; 6.71 µM (inactive) in the experiment with SF-295; 12.9 µM (inactive) with SK-OV-3; 1.14 µM (inactive) with SW-620; 1.97 µM (inactive) in the experiment with U-251; 2.3 µM (inactive) with UO-31.
In the case of `O=C(Cc1nc2ccccc2s1)C(=O)Nc1cccc(Cl)c1`, the GI50 in the experiment on CAKI-1 was > 100 µM (inactive); in the experiment on HCT-116, > 100 µM (inactive); in the experiment on HCT-15, more than 100 µM; in the experiment with HL-60, > 100 µM (inactive); in the experiment with HT-29 it was > 100 µM (inactive); in the experiment on LXFL 529, > 100 µM (inactive). The GI50 with Malme-3M, with NCI-H226, in the experiment on OVCAR-3, in the experiment on OVCAR-5, in the experiment with OVCAR-8 and in the experiment with RPMI-8226 was > 100 µM (inactive) throughout. In addition, the GI50 with SF-295, in the experiment with SK-OV-3, with SW-620, in the experiment on U-251 and in the experiment with UO-31 was > 100 µM (inactive) throughout.
As for `COc1cc(CCCC(O)COc2cccc3c2C2(O)CCCCCC32)cc(OC)c1` (stereo not given), the GI50 with CAKI-1 was 20.8 µM (inactive); in the experiment on HCT-116, 17.7 µM (inactive); in the experiment with HCT-15, 17.6 µM; in the experiment with HL-60, 22.2 µM (inactive); in the experiment on HT-29 it was 7.26 µM (inactive); in the experiment with LXFL 529 it was 16.5 µM (inactive). The GI50 was 17.7 µM (inactive) in the experiment with MOLT-4; 16 µM (inactive) with Malme-3M; 16.2 µM (inactive) with NCI-H226; 15.4 µM (inactive) in the experiment on OVCAR-5; 19.1 µM (inactive) in the experiment on OVCAR-8; 18.5 µM (inactive) in the experiment on RPMI-8226. Besides, the GI50 with SF-295 was 16.5 µM (inactive); in the experiment on SK-OV-3, 23.1 µM (inactive); in the experiment with SW-620, 17.2 µM (inactive); with U-251, 18.9 µM (inactive); in the experiment with UO-31, 15.4 µM (inactive).
Take `Cc1cccc(C)c1NC(=O)C1C(=O)N(c2c(C)cccc2C)C(=O)/C1=N\N` (stereo not given): the GI50 is > 100 µM (inactive) with CAKI-1; > 100 µM (inactive) in the experiment with HCT-116; more than 100 µM with HCT-15; 1.68 µM (inactive) in the experiment with HL-60; > 100 µM (inactive) in the experiment on HT-29; > 100 µM (inactive) in the experiment on LXFL 529. Further, the GI50 in the experiment with MOLT-4, in the experiment on Malme-3M, in the experiment with NCI-H226, with OVCAR-3, in the experiment on OVCAR-5 and in the experiment with OVCAR-8 was > 100 µM (inactive) each time. Moreover, the GI50 in the experiment on RPMI-8226, in the experiment with SF-295, in the experiment on SK-OV-3, with SW-620, in the experiment on U-251 and in the experiment on UO-31 was > 100 µM (inactive) throughout.
Regarding `Nc1ccc2ncc(NCc3ccc(F)cc3)nc2c1`, the GI50 is 71.9 µM (inactive) in the experiment on CAKI-1; > 100 µM (inactive) in the experiment on HCT-116; more than 100 µM with HCT-15; 95.9 µM (inactive) in the experiment with HL-60; > 100 µM (inactive) in the experiment on HT-29; > 100 µM (inactive) in the experiment on LXFL 529. Moreover, the GI50 in the experiment with MOLT-4 is 41.9 µM (inactive); in the experiment with Malme-3M it was > 100 µM (inactive); with NCI-H226, 40.9 µM (inactive); in the experiment with OVCAR-3 it was 38.9 µM (inactive); in the experiment on OVCAR-5, > 100 µM (inactive); in the experiment on OVCAR-8, 90.4 µM (inactive). Further, the GI50 with RPMI-8226 is 62.2 µM (inactive); with SF-295 it was 56.2 µM (inactive); in the experiment on SK-OV-3, 85.9 µM (inactive); in the experiment on SW-620, > 100 µM (inactive); in the experiment with U-251, > 100 µM (inactive); with UO-31, 16.4 µM (inactive).
With `CCOC(=O)/C(C(C)=O)=C1/N[C@H](C(=O)OCC)CS1`, the GI50 in the experiment with CAKI-1 was > 100 µM (inactive); in the experiment on HCT-116, > 100 µM (inactive); in the experiment with HCT-15, more than 100 µM; in the experiment on HL-60, > 100 µM (inactive); in the experiment with HT-29, > 100 µM (inactive); in the experiment on LXFL 529, > 100 µM (inactive). The GI50 with MOLT-4, in the experiment on Malme-3M, with NCI-H226, in the experiment on OVCAR-3, with OVCAR-5 and with OVCAR-8 was > 100 µM (inactive) in each case. The GI50 in the experiment on RPMI-8226, with SF-295, with SW-620, in the experiment with U-251 and in the experiment on UO-31 was > 100 µM (inactive) each time.
As for `CC1(C)N=C(c2ccccn2)C(c2ccccn2)=NC1(C)C`, the GI50 in the experiment with CAKI-1 is > 100 µM (inactive); with HCT-116 it was > 100 µM (inactive); in the experiment with HCT-15 it was more than 100 µM; in the experiment with HL-60, > 100 µM (inactive); with HT-29 it was > 100 µM (inactive); in the experiment with LXFL 529, > 100 µM (inactive). In addition, the GI50 with MOLT-4, in the experiment with Malme-3M, in the experiment on NCI-H226, in the experiment with OVCAR-3, with OVCAR-5 and in the experiment with OVCAR-8 was > 100 µM (inactive) throughout. Further, the GI50 with RPMI-8226, in the experiment on SF-295, with SW-620, in the experiment with U-251 and in the experiment on UO-31 was > 100 µM (inactive) in each case.
On to `Cc1cccc(-c2nnc3s/c(=C\c4ccc5c(c4)OCO5)c(=O)n23)c1`, for which the GI50 is > 100 µM (inactive) in the experiment on CAKI-1; > 100 µM (inactive) in the experiment on HCT-116; more than 100 µM in the experiment with HCT-15; > 100 µM (inactive) in the experiment with HL-60; > 100 µM (inactive) in the experiment with LXFL 529; > 100 µM (inactive) in the experiment with MOLT-4. Further, the GI50 in the experiment on Malme-3M, in the experiment on NCI-H226, in the experiment with OVCAR-3, with OVCAR-5, with OVCAR-8 and in the experiment with RPMI-8226 was > 100 µM (inactive) throughout. Besides, the GI50 with SF-295, in the experiment on SK-OV-3, in the experiment with SW-620, with U-251 and with UO-31 was > 100 µM (inactive) each time.
For the compound `CN1C(=O)C(C)(C)C2(SC(C)(C)C2(C)C)N(C)C1=S` (stereo not given), the GI50 is 8.49 µM (inactive) in the experiment on CAKI-1; > 100 µM (inactive) in the experiment on HCT-116; more than 100 µM with HCT-15; 96.2 µM (inactive) in the experiment on HL-60; > 100 µM (inactive) in the experiment with HT-29; > 100 µM (inactive) in the experiment with LXFL 529. The GI50 is 89.3 µM (inactive) in the experiment with MOLT-4; > 100 µM (inactive) in the experiment on Malme-3M; > 100 µM (inactive) in the experiment with NCI-H226; > 100 µM (inactive) in the experiment on OVCAR-3; > 100 µM (inactive) with OVCAR-5; > 100 µM (inactive) in the experiment on OVCAR-8. In addition, the GI50 was > 100 µM (inactive) with RPMI-8226; > 100 µM (inactive) in the experiment on SF-295; 36.1 µM (inactive) with SK-OV-3; > 100 µM (inactive) with SW-620; > 100 µM (inactive) with U-251; > 100 µM (inactive) in the experiment on UO-31.
On to `O=C1C[C@H]2CCCN2[C@@H](c2ccccc2)C1`, for which the GI50 in the experiment on CAKI-1 was > 100 µM (inactive); in the experiment on HCT-116, > 100 µM (inactive); in the experiment on HCT-15, more than 100 µM; with HL-60, > 100 µM (inactive); in the experiment with HT-29, > 100 µM (inactive); with LXFL 529, > 100 µM (inactive). Besides, the GI50 in the experiment with MOLT-4, with Malme-3M, with NCI-H226, with OVCAR-3, with OVCAR-5 and in the experiment on OVCAR-8 was > 100 µM (inactive) each time. For the same compound, the GI50 with RPMI-8226, in the experiment on SF-295, in the experiment with SK-OV-3, with SW-620, in the experiment on U-251 and in the experiment on UO-31 was > 100 µM (inactive) throughout.
In the case of `[N-]=[N+]=C1C(=O)C2CC3CC1CC2C3` (stereo not given), the GI50 was > 100 µM (inactive) in the experiment on CAKI-1; > 100 µM (inactive) in the experiment on HCT-116; more than 100 µM in the experiment with HCT-15; > 100 µM (inactive) in the experiment on HL-60; > 100 µM (inactive) in the experiment on HT-29; > 100 µM (inactive) with LXFL 529. In addition, the GI50 in the experiment with MOLT-4, in the experiment with Malme-3M, with NCI-H226, in the experiment on OVCAR-3, with OVCAR-5 and in the experiment with OVCAR-8 was > 100 µM (inactive) in each case. Moreover, the GI50 in the experiment with RPMI-8226 is > 100 µM (inactive); in the experiment on SF-295, > 100 µM (inactive); with SK-OV-3, > 100 µM (inactive); with SW-620, 81.1 µM (inactive); in the experiment on U-251, > 100 µM (inactive); in the experiment on UO-31, > 100 µM (inactive).
